According to patent US8357701B2, “Galactokinase inhibitors” (University of Miami, priority 2007, dated 2013):

Legend:
Assay type in all cases: biochemical
[1] = target: T1, human galactokinase (GALK) (Homo sapiens, UniProt P51570); assay: two-step luminescence-based (Kinase-Glo) high-throughput GALK assay; conditions: ATP-γ-S from 0 to 13.3 μM, ATP constant at 5 μM; FIG. 3C
T1 construct: made in house; host or cells: Escherichia coli HMS174 (DE3), plasmid pET15b
Description: Using the Kinase-Glo™ reagent (Promega, Madison, Wis.), a miniaturized, two-step HTS assay for GALK was developed. […] After 60 minutes at room temperature (22° C.), 30 μL of Kinase Glo™ (Promega) was added, and luminescence was measured within 30 min using an Envision Multilabel Plate Reader (Perkin Elmer). In the course of 12 days, nearly 50,000 compounds from various libraries of small molecules with diverse structural scaffolds were screened for their inhibitory properties of GALK activity in vitro. […] The reaction was then allowed to proceed at room temperature (22° C.) for 60 min. Then, 30 μL of Kinase-Glo™ was added to stop the reaction, and luminescence was measured 15 to 30 min later using the Envision Multilabel Plate Reader (PerkinElmer). 50,000 small molecules were screened, in duplicate, for inhibitory properties against purified GALK. […] In short, duplicate luminescence measurements were corrected for background measurements using the method described by Seiler et al. (Nucl. Acids Res 2007). […] After 60 min at room temperature (22° C.), 30 μL of Kinase-Glo™ was added, and luminescence was measured within 30 min using an Envision Multilabel Plate Reader (PerkinElmer, Waltham, Mass.). […] Then, 30 μl of Kinase-Glo™ was added to stop the reaction, and luminescence was measured 15 to 30 min later using the Envision Multilabel Plate Reader (PerkinElmer). […]

human GALK = target: T2, human GALK (Homo sapiens, UniProt P51570); assay: standard pyruvate kinase/lactate dehydrogenase-coupled GALK assay; conditions: dose response, FIG. 7; values somewhat lower than in the luminescence assay; no numbers given
T2 construct: made in house; host or cells: Escherichia coli HMS174 (DE3), plasmid pET15b
T2 sequence (P51570 whole entry): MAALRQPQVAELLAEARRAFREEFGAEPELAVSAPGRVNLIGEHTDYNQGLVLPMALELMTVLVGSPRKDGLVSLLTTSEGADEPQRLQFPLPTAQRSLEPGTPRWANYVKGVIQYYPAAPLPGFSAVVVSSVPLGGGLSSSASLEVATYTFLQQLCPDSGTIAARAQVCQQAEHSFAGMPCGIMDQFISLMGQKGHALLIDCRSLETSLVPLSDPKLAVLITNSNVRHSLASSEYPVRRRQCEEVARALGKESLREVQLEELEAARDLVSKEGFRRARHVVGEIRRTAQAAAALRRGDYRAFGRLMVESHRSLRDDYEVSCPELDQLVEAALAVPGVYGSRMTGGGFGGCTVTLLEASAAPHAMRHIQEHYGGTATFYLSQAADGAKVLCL
Text: As the percentage of substrate conversion can have significant impact on the accuracy of IC50 determination, the preferred approach is to determine reaction rates at initial velocity (i.e., zero substrate conversion). […] In this assay, the amount of galactose present in the reaction is kept in excess, whereas ATP consumed by the galactokinase reaction is recycled by the pyruvate kinase reaction.
As the percentage of substrate conversion can have significant impact on the accuracy of IC50 determination, the preferred approach is to determine reaction rates at initial velocity (i.e., zero substrate conversion). […] The dose response of the selected compounds was analyzed using the standard pyruvate kinase/lactate dehydrogenase-Coupled assay. In this assay, the amount of galactose present in the reaction was kept in excess, whereas ATP consumed by the galactokinase reaction was recycled by the pyruvate kinase reaction.

[2] = target: T3, purified recombinant E. coli CDP-ME kinase (Escherichia coli, UniProt P62615); assay: CDP-ME kinase assay (luminescence-based); conditions: CDP-ME as substrate; increasing compound concentration; FIG. 10B
T3 construct: made in house; host or cells: E. coli HMS174
T3 sequence (P62615 1-283): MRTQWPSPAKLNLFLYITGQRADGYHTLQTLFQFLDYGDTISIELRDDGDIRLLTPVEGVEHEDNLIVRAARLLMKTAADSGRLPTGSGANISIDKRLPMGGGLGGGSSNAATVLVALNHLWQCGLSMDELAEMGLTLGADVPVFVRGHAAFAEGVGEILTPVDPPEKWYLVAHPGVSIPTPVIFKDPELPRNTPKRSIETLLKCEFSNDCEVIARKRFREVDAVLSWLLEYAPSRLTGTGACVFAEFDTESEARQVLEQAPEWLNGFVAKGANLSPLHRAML
Description: Detailed Protocol for CDP-ME Kinase Assay
Protocol: Mix I was prepared using 1 microL for MVK. If dilutions are to be made, dilute in 1× buffer to 1 microL. Mix II was prepared just before use, as CMP-ME and ATP may deteriorate. Final CMP-ME concentration was chosen at 50 microM for the sake of economics and kept on ice until it was dispensed.
At least 4 replicates per condition were used in the experiment. Mix I was dispensed on the plate with a pipette. Mix II was then added and the plate covered with foil. The plates was incubated at 37° C. for 15 minutes and Kinase-Glo® (Promega, Madison Wis.) was added, the plate covered with foil, and incubated at RT for 15 minutes. Measurements were taken as described for the GALK protocol, the data were plotted and the enzyme concentration with reading within linear range just above baseline was selected.
Protocol to test for inhibition: Compound stored at −80° C. was slowly thawed. Stock was at 10 mM concentration.
These were incubated for 1 hour with MVK. Each dilution was then be pipetted into wells (40 microL each). 20 microL of Mix II was added to each well and covered with foil. The plates were incubated at 37° C., for 15 minutes, then Kinase-Glo® (Promega, Madison, Wis.) was added, plates were covered with foil, and incubated at room temperature (RT) for 15 minutes. The data was plotted and the IC50 was calculated.

T1 sequence (P51570 whole entry): as the sequence (P51570 whole entry) above

Nc1ncnc2c1ncn2[C@@H]1O[C@H](COP(=O)(O)OP(=O)(O)OP(O)(O)=S)[C@@H](O)[C@H]1O [ATP-γ-S, adenosine 5′-O-(3-thio-)triphosphate]
inhibition of GALK activity by ATP mimetic [1]: acted as a GALK inhibitor

CC(C)(C)C(=O)Nc1ccc2c(c1)C(=O)C(=O)c1ccccc1-2 [compound 1, Tyrosine Phosphatase CD45 inhibitor]
IC50 values confirmed in coupled assay (human GALK): confirmed

CC1(c2ccccc2)CC(C)(C)N2C(=O)/C(=C3/SC(=O)NC3=O)c3cccc1c32 (stereo not drawn) [compound 3]
IC50 values confirmed in coupled assay (human GALK): confirmed

Oc1c(Cl)cc(Cl)c(Cl)c1Cc1c(O)c(Cl)cc(Cl)c1Cl [compound 9, Hexachlorophene]
IC50 values confirmed in coupled assay (human GALK): confirmed
inhibition of E. coli CDP-ME kinase [2]: inhibits E. coli CDP-ME kinase

COC1=C(N)C(=O)c2nc(-c3nc(C(=O)O)c(C)c(-c4ccc(OC)c(OC)c4O)c3N)ccc2C1=O [compound 24, Streptonigrin]
IC50 values confirmed in coupled assay (human GALK): confirmed
